Structures can show the parent of a compound that is named as a salt.
Columns and labels:
[1] = tested on: Parkinson's patients; test: three year, international, multicentre, double-blind comparative clinical trial of ropinirole versus bromocriptine; format: in vivo, human; conditions: for patients considered responders (at least a 30% reduction from baseline in total motor examination score on the UPDRS): at the study's completion; for mean improvement in UPDRS motor score: three years
Source text: In a three year, international, multicentre, double-blind comparative clinical trial, Parkinson's patients were randomised to receive either ropinirole (n=168) or bromocriptine (n=167). 33% of patients received selegiline concomitantly with either ropinirole or bromocriptine. Of those enrolled, 214 patients completed the study (approximately 39% of patients treated with ropinirole and 33% of patients treated with bromocriptine withdrew from the study). Efficacy was based on the following:
1 Mean Unified Parkinson's Disease Rating Scale (UPDRS) Activities of Daily Living (ADL) score (Part II) at completion
2 Improvement in UPDRS total motor examination score (Part III)
3 Percentage of patients who were considered responders, defined as those with at least a 30% reduction from baseline in total motor examination score on the UPDRS
4 Average combined ADL and motor score at endpoint
5 The percentage of patients who required supplemental levodopa therapy.

[2] = tested on: putamen dopaminergic function; test: 18 Fluoro-dopa PET scanning in five year, double-blind, multicentre study of ropinirole versus levodopa; format: in vivo, human; conditions: for loss of putamen dopaminergic function (mean percent change): all patients (Hoehn & Yahr I-III), approximately two years between scans, average of both sides of the brain; for loss of putamen dopaminergic function (mean percent change) / decrease in putamen dopaminergic function (mean percent change): 18 Fluoro-dopa PET; for decrease in putamen dopaminergic function (mean percent change): subgroup of patients with Parkinson's disease for less than 2 years
Description: In an ongoing five year, double-blind, multicentre study, patients with early Pakinson's disease (Hoehn & Yahr I-III) were randomised to receive either ropinirole or levodopa. Of those enrolled, 37 patients were scanned using 18 Fluoro-dopa PET scanning within the first year and then approximately two years later to measure the gradual decline in basal ganglia dopaminergic function. […] The following endpoints were assessed:
1 Mean percent change in putamen dopaminergic function in all patients (Hoehn & Yahr I-III)
2 Mean percent change in putamen dopaminergic function in Parkinson's disease patients with symptoms present for under two years
3 Mean percent change in putamen dopaminergic function in Parkinson's disease patients with symptoms present for more than two years

[3] = patients who completed the study

| SMILES | patients considered responders (at least a 30% reduction from baseline in total motor examination score on the UPDRS) [1] [%] | mean improvement in UPDRS motor score [1, 3] [%] | incidence of dyskinesias ([1]; three year trial) [%] | patients who required supplemental levodopa ([1]; three year trial) [%] | loss of putamen dopaminergic function (mean percent change) [2] [%] | difference between treatment groups in change in putamen dopaminergic function ([2]; patients with Parkinson's disease for more than two years, ropinirole versus levodopa) | decrease in putamen dopaminergic function (mean percent change) [2] [%] | average improvement in the combined ADL and motor scores versus bromocriptine ([1]; at endpoint, p=0.018) | incidence of dyskinesias ([1]; human, in vivo, 3 years) [%] | mean improvement in UPDRS ADL score versus bromocriptine ([1]; patients who completed the study, p=0.009) |
| --- | --- | --- | --- | --- | --- | --- | --- | --- | --- | --- |
| CC(C)C[C@H]1C(=O)N2CCC[C@H]2[C@]2(O)O[C@](NC(=O)[C@@H]3C=C4c5cccc6[nH]c(Br)c(c56)C[C@H]4N(C)C3)(C(C)C)C(=O)N12 [bromocriptine] | 42 | 22 | 7 | 42 |  |  |  |  |  |  |
| CCCN(CCC)CCc1cccc2c1CC(=O)N2 [ropinirole, 4-[2-(di-n-propylamino)ethyl]-1,3-dihydro-2H-indolin-2-one hydrochlorid] | 53 | 31 |  | 34 | 13 | no statistically significant difference | 14 | statistically significantly greater | 8 | statistically significantly mean improvement |
| N[C@@H](Cc1ccc(O)c(O)c1)C(=O)O [levodopa] |  |  |  |  | 18 |  | 28 |  |  |  |

— patent publication US20030060499A1, “Novel therapeutic method” (priority 1998, published 2003)
